From patent US7199113B2, “Pharmaceutically active compounds and methods of use thereof” (priority 1998, dated 2007) come the findings set out here.

pIC50: −log10 of the molar value.

Type in all cases: biochemical
For assay [1], the target named is T1, FVIIa (Homo sapiens, UniProt P08709).
T1 construct: proteolytic cleavage of the zymogen FVII to the active serine protease FVIIa; purchased Enzyme Research Laboratories Inc
T1 sequence (P08709 213-466 limits assumed): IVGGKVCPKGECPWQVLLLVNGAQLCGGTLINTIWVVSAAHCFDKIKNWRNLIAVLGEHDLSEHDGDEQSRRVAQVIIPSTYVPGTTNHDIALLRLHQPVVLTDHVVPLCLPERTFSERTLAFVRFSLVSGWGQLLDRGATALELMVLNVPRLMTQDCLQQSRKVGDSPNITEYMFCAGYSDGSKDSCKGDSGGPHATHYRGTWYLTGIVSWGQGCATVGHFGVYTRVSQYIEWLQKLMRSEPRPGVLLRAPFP
T1 sequence (P08709 61-212 limits assumed): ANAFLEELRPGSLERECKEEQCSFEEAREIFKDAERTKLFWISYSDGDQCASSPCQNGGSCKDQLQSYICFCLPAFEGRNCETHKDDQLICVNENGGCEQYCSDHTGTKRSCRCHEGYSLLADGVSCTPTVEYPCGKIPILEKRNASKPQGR
Description: FVIIa-dependent FX activation (TF omitted). The note with it: statement on Table 2 (FIG. 2(b)). As for the experimental part:
FVIIa alone in the presence of phospholipids and calcium is also able to activate FX, although at a very low rate. This experiment was designed to examine whether compounds 1 and 2 inhibit FVIIa-dependent FX activation if TF is omitted. […] This assay was done at relatively high FVIIa concentrations. Six microliters of compound 1(1 mM in 10% DMSO) or 10% DMSO was mixed with 40 μl of 25 mM HEPES-NaOH, 5 mM CaCl2, 150 mM NaCl, 0.1% BSA, pH 7.5 containing phosphatidylcholine (0.07 mg/ml) and phosphatidylserine (0.03 mg/ml). Then 4 μl of FVIIa (1.5 μM) and 10 μl of FX (180 nM) were added and mixed. The mixture was incubated for 1 hour at 37° C. Then 10 μl of EDTA (400 mM) was added to stop FVII activity by removing the calcium required for factor VII activity. Then 10 μl of FXa substrate S-2765 (3.2 mM) was added to measure the FXa activity generated by FVIIa. After 16 minutes incubation at 37° C., 20 μl of 50% acetic acid was added to quench the reaction. Absorbance at 405 nm was read and the percent inhibition of FVIIa-dependent FX activation was calculated from OD405 nm values in the absence and presence of compound 1.

For assay [2], the target named is T2, human recombinant TF/VIIa complex (lipidated) (Homo sapiens, UniProt P13726).
T2 construct: Truncated recombinant human tissue factor (e.g. composed of 243 amino acids) is expressed in E. coli; host or cells: E. coli (TF)
Description: TF/VIIa-dependent FX activation assay.

Assay [3] concerns the target T3, TF/FVIIa complex (Homo sapiens, UniProt P08709+P13726, DEL276-295).
T3 construct: proteolytic cleavage of the zymogen FVII to the active serine protease FVIIa; Truncated recombinant human tissue factor (e.g. composed of 243 amino acids) is expressed in E. coli; host or cells: E. coli (TF)
Description: FVIIa activity assay (TF/VIIa catalytic activity toward S-2288). The following applies: statement on Table 1 (FIG. 2(a)). How it is done: Factor VIIa (FVIIa) activity, or the effect of TF and FVIIa interactions, can be determined in the presence of TF using FX and a small peptide (chromogenic) substrate or in the absence of TF using FX as substrate. Assays using FVIIa-specific chromogenic substrate S-2288 directly measures the effect of a compound on FVIIa catalytic activity. In this assay, 55 μl of TF/FVIIa complex (containing 10 nM TF and 10 nM VIIa) was first incubated with 5 μl of DMSO (or diluted DMSO) or compound, in a 96-well plate for 15 minutes at 37° C., then admixed with 20 μl of 8 mM S-2288. The reaction was incubated for 1–2 hours at 37° C. Absorbance at 405 nm was then measured after the reaction was quenched with 20 μl of 50% acetic acid. The percent inhibition of TF/VIIa activity was calculated from OD405 nm values in the absence and presence of a compound. […] Inhibition of TF/VIIa activity toward S-2288 by the two compounds would be expected if they were to bind to VIIa active site or prevent TF and VIIa from forming an active complex.

As for `O=P(O)(O)C(CNc1cccc(O)c1)P(=O)(O)O` [Compound 1, 1-(bisphosponate)-2-amino(3-hydroxyphenyl)ethyl], the “inhibition of FVIIa-dependent FX activation” value in assay [1] was “does not inhibit FVIIa-dependent FX activation”. In addition, the pIC50 was 4.74 in assay [2] (TF/VIIa, FX and compound added simultaneously, FX 5 nM); 4.48 in assay [2] (TF/VIIa, FX and compound added simultaneously, FX 30 nM); 5.08 in assay [2] (compound preincubated with TF/VIIa 15 minutes at 37° C. prior to FX, FX 5 nM). Further, the “effect on TF/VIIa catalytic activity toward S-2288” value in assay [3] is on record as “do not have significant effect”.

For `O=P(O)(O)C(CNc1ccc(O)cc1)P(=O)(O)O` [Compound 2], the “effect on TF/VIIa catalytic activity toward S-2288” value in assay [3] is “do not have significant effect”.
